Patent US10082499B2, “Short term isotope pulse labeling method for analysing metabolic products in biological samples” (Max-Delbrueck-Centrum fuer Molekulare Medizin, priority 2014, dated 2018)
“Also recorded” adds a separate entry of the source.

Tested on: T98G cells
Assay: pSIRM analysis of glycolytic inhibition (13C-glucose pulse labeling, GC-MS)
Assay type: cell-based
Experimental: GC-MS measurement: Metabolite analysis was performed on a gas chromatography coupled to time of flight mass spectrometer (LECO-Pegasus III— TOF-MS-System, LECO), supplemented with an auto-sampler (MultiPurpose Sampler 2 XL, Gerstel). Samples and quantification standards were injected in split mode (split 1:5, injection volume: 1 ul,) in a temperature-controlled injector (CAS4, Gerstel) with a baffled glass-liner (Gerstel). The following temperature program was applied during sample injection: Initial temperature of 80° C. for 30 s followed by a ramp with 12° C./min to 120° C. and a second ramp with 7° C./min to 300° C. and final hold for 2 min. Gas chromatographic separation was performed on an Agilent 6890N (Agilent), equipped with a Varian VF-5 ms-column of 30 m length, 250 μm inner diameter and 0.25 μm film thickness (Varian). Helium was used as carrier gas with a flow rate of 1.2 mL/min. Gas chromatography was performed with the following temperature gradient: 2 min heating at 70° C., first temperature gradient with 5° C./min up to 120° C. and hold for 30 s, subsequently a second temperature increase of 7° C./min up to 350° C. with a hold time of 2 min. Spectra were recorded in a mass range of 60 to 600 u with 20 spectra/s at a detector voltage of 1750 V.
Data analysis: The vendor software ChromaTOF Version 4.42 (LECO Corp. St. Joseph—USA) was used for metabolite evaluation with the following parameter: baseline offset of 1, peak width of 4 s, signal/noise of 20, peak smoothing of 11 data-points. Retention indices were calculated based on retention index standards as described (Ref). GoIm Metabolome Database (GMD) provided peak identification. The quantification routine of ChromaTOF was used for external calibration based on the measured quantification standards. Exported csv-files included: Name, quant mass, retention index, 1st dimension retention time, 2nd dimension retention time, area, concentration, match, reverse, quant signal/noise, type, concentration units and the peak true spectrum in absolute values. For further data analysis the tool MetMax was developed in cooperation with the MPIMP in Potsdam-Golm (http://gmd.mpimp-golm.mpg.de/apps/metmax). MetMax provided of extraction of peak areas and quantities (retention analysis mode), and intensities of pre-defined mass ranges (isotope concentrator mode) from the exported csv-files. The in-house developed pSIRM-wizard enabled the determination of ^13C-label incorporation based on the exported data following the descriptions and equations stated in the paper.
Cell harvest: Growth media was removed from cells and cells were incubated in 5 ml of prewarmed (37° C.) wash-buffer (137 mM NaCl, 3 mM KCl, 5 mM HEPES, adjusted to a pH of 7.2-7.4) enriched with the same amount of glucose and glutamine as in the growth media (2.5 g/L and 4 mM respectively). For the metabolic labeling the wash-buffer is used as labeling buffer with glucose or glutamine replaced by their ^13C-counterpart. Cells were incubated for 3 minutes at 37° C. before harvest. The buffer was removed followed by an immediate addition of 5 ml of prechilled (−20 to −40° C.) 50% MeOH (with 2-4 μg/mL Cinnamic acid as internal standard) to the plate. Cells were scratched of the plates using cell-scraper and transferred to a falcon, which contain 1 ml of chloroform. Cell suspension was frozen in liquid nitrogen and stored at −80° C. until extraction. To extract cell metabolism the suspension was shaken for 30 minutes at 4° C., followed by a centrifugation for 10 minutes to perform phase separation. 4.5 ml of the upper, polar phase were transferred into a new falcon and dried under vacuum. On the next day the pellet was resuspended in 530 μl 20% Methanol (4° C.), shaken at 4° C. until completely solved, transferred into two eppies (2×250 μl) and dried under vacuum. The dried samples were stored at −20° C. and derivatized as described above. […]

[1] = 2 mM inhibitor 12 min + 3 min 13C-glucose
[2] = 2 mM inhibitor 12 min, then 3 min 13C-glucose in presence of inhibitor

O=CC[C@@H](O)[C@H](O)[C@H](O)CO [2DG, 2-deoxyglucose]
13C-glucose incorporation (carbon flow) into citrate [1]: extended; also recorded: increasing
inhibitory effect on glycolysis [1]: negligible
isotope incorporation in pyruvate and lactate / pyruvate or lactate levels [1]: affected only marginally; also recorded: did not affect
reduction of the 13C-fraction of hexose-phosphates [2]: 20%
inhibitory effect on glycolysis (10 mM inhibitor): stronger inhibition
isotope incorporation rates in G6P (10 mM inhibitor): not affected
reduction of glycolytic flow (10 mM inhibitor): up to 80%

O=C(O)C(=O)CBr [BrPyr]
carbon flow downstream of GAPDH (2 mM inhibitor): strong decline
concentration of 3PGA [1]: diminished below the detection limit
inhibitory effect on glycolysis [1]: nearly completely inhibited
labelled fraction of G6P and F6P [1]: reduced
total concentration of G6P and F6P (hexose phosphates) [1]: increased
reduction of carbon-flow into pyruvate, lactate and citrate [2]: around 100%
